Read-outs that look alike come from different tables or passages of the source. Positions of bridges follow the written chain, without caps; N, C: chain ends. Non-standard residues stand in square brackets, D forms with d. Residues, ends and D or L forms follow the SMILES beside them. Cha = N[C@@H](CC1CCCCC1)C(=O)O; Phg = N[C@H](C(=O)O)c1ccccc1
What was measured:
Experiment in all cases: cell-based
[1] = target: hNav1.7 (Homo sapiens, UniProt Q15858); format: cell-based
[2] = target: hNav1.5 (Homo sapiens, UniProt Q14524); conditions: IonWorks Quattro, read-out: IWQ Use Nav1.5
[3] = target: hNav1.3 (Homo sapiens, UniProt Q9NY46); conditions: IonWorks Quattro, read-out: IWQ Use Nav1.3
hNav1.3, sequence (Q9NY46 whole entry, looked up): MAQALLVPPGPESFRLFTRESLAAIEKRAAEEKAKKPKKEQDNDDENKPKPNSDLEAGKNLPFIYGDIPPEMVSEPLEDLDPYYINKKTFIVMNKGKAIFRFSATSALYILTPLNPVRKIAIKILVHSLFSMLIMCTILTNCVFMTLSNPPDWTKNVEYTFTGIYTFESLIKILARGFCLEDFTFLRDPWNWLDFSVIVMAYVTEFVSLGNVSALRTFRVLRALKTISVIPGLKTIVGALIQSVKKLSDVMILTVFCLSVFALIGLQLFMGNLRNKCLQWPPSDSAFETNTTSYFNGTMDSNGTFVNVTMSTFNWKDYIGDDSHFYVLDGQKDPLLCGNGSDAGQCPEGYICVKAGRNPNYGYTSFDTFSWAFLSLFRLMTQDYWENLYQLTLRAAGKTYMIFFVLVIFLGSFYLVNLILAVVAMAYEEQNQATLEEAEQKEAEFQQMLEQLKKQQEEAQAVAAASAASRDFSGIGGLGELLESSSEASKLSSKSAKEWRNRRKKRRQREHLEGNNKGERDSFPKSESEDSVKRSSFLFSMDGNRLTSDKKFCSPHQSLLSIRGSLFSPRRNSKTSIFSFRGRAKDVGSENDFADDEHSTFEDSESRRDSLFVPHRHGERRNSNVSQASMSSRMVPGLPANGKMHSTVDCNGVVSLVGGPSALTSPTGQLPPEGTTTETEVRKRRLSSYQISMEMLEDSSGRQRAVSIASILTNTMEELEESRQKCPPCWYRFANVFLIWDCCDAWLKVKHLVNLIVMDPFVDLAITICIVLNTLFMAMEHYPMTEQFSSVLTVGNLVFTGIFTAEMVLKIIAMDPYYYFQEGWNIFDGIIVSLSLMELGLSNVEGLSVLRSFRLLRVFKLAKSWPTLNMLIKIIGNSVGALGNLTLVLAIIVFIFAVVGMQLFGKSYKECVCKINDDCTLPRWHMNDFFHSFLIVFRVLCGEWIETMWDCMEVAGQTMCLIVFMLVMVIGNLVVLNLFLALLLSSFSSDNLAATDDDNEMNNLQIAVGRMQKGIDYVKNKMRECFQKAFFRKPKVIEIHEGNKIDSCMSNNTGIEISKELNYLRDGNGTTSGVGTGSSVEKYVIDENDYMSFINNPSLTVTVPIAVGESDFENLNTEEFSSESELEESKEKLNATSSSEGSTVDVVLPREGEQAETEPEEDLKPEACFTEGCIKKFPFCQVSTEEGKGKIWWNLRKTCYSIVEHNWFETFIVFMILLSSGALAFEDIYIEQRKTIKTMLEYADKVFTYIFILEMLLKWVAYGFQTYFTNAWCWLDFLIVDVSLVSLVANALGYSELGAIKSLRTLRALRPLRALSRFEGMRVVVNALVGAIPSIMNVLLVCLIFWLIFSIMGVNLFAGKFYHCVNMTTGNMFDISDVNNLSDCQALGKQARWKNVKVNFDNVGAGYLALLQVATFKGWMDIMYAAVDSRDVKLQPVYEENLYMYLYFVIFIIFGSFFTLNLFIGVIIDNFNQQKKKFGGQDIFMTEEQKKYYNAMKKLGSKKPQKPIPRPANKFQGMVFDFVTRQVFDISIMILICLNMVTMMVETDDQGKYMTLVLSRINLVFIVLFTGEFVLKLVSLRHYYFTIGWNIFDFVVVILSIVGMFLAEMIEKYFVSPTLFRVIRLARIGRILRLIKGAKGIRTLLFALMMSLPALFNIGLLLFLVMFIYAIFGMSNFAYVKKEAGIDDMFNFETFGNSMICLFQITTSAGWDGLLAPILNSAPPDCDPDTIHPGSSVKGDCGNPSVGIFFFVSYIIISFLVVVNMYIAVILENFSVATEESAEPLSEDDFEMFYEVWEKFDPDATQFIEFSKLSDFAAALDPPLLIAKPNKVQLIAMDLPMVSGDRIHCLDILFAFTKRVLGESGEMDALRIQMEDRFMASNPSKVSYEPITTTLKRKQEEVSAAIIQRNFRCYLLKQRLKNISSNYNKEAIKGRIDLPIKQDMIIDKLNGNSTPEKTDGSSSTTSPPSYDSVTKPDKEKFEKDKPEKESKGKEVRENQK

[4] = IonWorks Quattro, use-dependent block, hNav1.7, read-out: IWQ Use Nav1.7

hNav1.7, sequence (Q15858 whole entry, looked up): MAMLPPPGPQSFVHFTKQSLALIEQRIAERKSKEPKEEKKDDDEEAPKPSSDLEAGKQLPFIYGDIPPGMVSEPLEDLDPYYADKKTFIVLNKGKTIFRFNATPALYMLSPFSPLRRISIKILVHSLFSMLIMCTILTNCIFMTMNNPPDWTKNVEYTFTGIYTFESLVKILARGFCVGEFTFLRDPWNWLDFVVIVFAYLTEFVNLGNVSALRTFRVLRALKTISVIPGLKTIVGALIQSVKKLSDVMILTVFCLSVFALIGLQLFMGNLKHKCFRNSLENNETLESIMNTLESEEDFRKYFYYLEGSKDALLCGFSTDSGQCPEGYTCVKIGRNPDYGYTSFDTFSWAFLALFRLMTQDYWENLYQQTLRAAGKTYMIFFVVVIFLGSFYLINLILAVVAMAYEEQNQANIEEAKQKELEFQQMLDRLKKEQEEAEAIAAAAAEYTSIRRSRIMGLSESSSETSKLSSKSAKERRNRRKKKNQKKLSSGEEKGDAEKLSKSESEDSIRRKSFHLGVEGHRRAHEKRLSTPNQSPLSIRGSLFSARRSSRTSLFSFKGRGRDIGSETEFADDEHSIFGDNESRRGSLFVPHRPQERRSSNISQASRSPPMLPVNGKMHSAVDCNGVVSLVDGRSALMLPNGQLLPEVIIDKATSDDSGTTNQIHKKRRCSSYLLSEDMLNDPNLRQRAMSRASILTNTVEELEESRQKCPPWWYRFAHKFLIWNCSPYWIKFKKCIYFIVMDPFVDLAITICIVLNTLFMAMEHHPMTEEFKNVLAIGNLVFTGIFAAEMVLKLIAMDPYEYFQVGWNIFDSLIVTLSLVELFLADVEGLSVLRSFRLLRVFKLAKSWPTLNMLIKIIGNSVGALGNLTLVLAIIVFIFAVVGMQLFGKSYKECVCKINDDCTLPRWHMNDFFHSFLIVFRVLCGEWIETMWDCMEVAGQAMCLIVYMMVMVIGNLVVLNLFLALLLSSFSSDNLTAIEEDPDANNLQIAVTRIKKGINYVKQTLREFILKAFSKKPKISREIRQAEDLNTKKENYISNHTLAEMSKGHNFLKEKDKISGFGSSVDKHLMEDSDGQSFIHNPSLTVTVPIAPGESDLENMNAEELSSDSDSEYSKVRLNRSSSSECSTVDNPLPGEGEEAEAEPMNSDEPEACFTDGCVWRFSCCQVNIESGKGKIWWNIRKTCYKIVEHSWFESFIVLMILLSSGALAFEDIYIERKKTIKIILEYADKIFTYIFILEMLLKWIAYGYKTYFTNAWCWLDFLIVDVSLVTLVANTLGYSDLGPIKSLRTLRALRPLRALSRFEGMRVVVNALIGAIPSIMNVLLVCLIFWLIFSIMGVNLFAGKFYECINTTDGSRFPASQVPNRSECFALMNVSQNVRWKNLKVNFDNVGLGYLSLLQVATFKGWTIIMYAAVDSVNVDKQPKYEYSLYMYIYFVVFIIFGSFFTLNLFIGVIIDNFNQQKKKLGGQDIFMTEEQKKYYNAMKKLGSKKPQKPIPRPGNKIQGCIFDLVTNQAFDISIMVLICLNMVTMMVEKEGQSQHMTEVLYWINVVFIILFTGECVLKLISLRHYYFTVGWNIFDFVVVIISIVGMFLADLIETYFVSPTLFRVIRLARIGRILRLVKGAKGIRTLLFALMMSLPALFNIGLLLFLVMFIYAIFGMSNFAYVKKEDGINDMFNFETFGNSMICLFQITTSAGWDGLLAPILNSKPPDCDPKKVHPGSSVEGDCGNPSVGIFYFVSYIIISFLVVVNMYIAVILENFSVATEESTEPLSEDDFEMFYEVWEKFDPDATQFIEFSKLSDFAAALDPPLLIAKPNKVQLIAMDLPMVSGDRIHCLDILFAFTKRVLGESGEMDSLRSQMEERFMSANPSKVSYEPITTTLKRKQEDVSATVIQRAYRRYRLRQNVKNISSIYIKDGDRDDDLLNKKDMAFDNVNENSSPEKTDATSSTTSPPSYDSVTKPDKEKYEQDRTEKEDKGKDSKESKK

Q: `CC[C@H](C)[C@@H]1NC(=O)[C@@H](NC(=O)[C@H](CCCCN)NC(=O)[C@H](CCCNC(=N)N)NC(=O)[C@H](CCSC)NC(=O)[C@H](Cc2ccccc2)NC(=O)CNC(=O)[C@H](CC(C)C)NC(=O)[C@H](C)NC(=O)[C@@H](N)CC(=O)O)CSSC[C@@H]2NC(=O)[C@H](C(C)C)NC(=O)[C@H](CC(C)C)NC(=O)[C@H](CC(N)=O)NC(=O)[C@@H]3CCCN3C(=O)[C@H](CCCNC(=N)N)NC(=O)[C@H](C)NC(=O)[C@H](CSSC[C@@H](C(=O)N[C@@H](CCCCN)C(=O)N[C@@H](Cc3ccc(O)cc3)C(=O)N[C@H](C(=O)N[C@@H](Cc3ccccc3)C(N)=O)C(C)C)NC(=O)[C@H](Cc3c[nH]c4ccccc34)NC(=O)[C@H](CCCCN)NC(=O)[C@H](Cc3c[nH]cn3)NC(=O)[C@H]([C@@H](C)O)NC(=O)[C@H](CCCNC(=N)N)NC(=O)[C@H](CO)NC2=O)NC(=O)[C@H](CCCCN)NC(=O)[C@H](CC(=O)O)NC(=O)[C@H](CC(N)=O)NC(=O)[C@H](CC(=O)O)NC(=O)[C@@H]2CCCN2C1=O` [compound 140] (H-DALGFMRKCIPDNDKCARPNLVCSRTHKWCKYVF-NH2; disulfide 9-23, 16-30) was tested. Which IC50 [1, 4] did it give?
A: 2450 nM

Q: What about the IC50 ([2]; use-dependent block, hNav1.5) of the same compound?
A: 18900 nM

Q: What about the IC50 ([3]; use-dependent block, hNav1.3) of the same compound?
A: 790 nM

Q: With `CC[C@H](C)[C@@H]1NC(=O)[C@@H]2CSSC[C@@H]3NC(=O)[C@H](C(C)C)NC(=O)[C@H](CC(C)C)NC(=O)[C@H](CC(N)=O)NC(=O)[C@@H]4CCCN4C(=O)[C@H](CCCNC(=N)N)NC(=O)[C@H](CSSC[C@H](NC(=O)[C@@H](N)CC(=O)O)C(=O)N[C@@H](CC(C)C)C(=O)NCC(=O)N[C@@H](Cc4ccccc4)C(=O)N[C@@H](CCSC)C(=O)N[C@@H](CCCNC(=N)N)C(=O)N[C@@H](CCCCN)C(=O)N2)NC(=O)[C@H](CSSC[C@@H](C(=O)N[C@@H](CCCCN)C(=O)N[C@@H](Cc2ccc(O)cc2)C(=O)N[C@H](C(=O)N[C@@H](Cc2ccccc2)C(N)=O)C(C)C)NC(=O)[C@H](Cc2c[nH]c4ccccc24)NC(=O)[C@H](CCCCN)NC(=O)[C@H](Cc2cnc[nH]2)NC(=O)[C@H]([C@@H](C)O)NC(=O)[C@H](CCCNC(=N)N)NC(=O)[C@H](CCC(=O)O)NC3=O)NC(=O)[C@H](CCCCN)NC(=O)[C@H](CC(=O)O)NC(=O)[C@H](CC(N)=O)NC(=O)[C@H](CC(=O)O)NC(=O)[C@@H]2CCCN2C1=O` [compound 150] (H-DCLGFMRKCIPDNDKCCRPNLVCERTHKWCKYVF-NH2; disulfide 2-17, 9-23, 16-30) as the compound, how does the IC50 ([1]; IonWorks Quattro, Use, read-out: IWQ Use Nav1.7) read?
A: 6120 nM

Q: And the IC50 ([2]; Use)?
A: 11500 nM

Q: And the IC50 ([3]; Use)?
A: 6780 nM

Q: Which results are given for `CC[C@H](C)[C@@H]1NC(=O)[C@@H]2CSSC[C@@H]3NC(=O)[C@H](C(C)C)NC(=O)[C@H](CC(C)C)NC(=O)[C@H](CC(N)=O)NC(=O)[C@@H]4CCCN4C(=O)[C@H](CCCNC(=N)N)NC(=O)[C@H](CSSC[C@H](NC(=O)[C@@H](N)CC(=O)O)C(=O)N[C@@H](CC(C)C)C(=O)NCC(=O)N[C@@H](C)C(=O)N[C@@H](CCSC)C(=O)N[C@@H](CCCNC(=N)N)C(=O)N[C@@H](CCCCN)C(=O)N2)NC(=O)[C@H](CSSC[C@@H](C(=O)N[C@@H](CCCCN)C(=O)N[C@@H](Cc2ccc(O)cc2)C(=O)N[C@@H](Cc2c[nH]c4ccccc24)C(=O)N[C@@H](Cc2ccccc2)C(N)=O)NC(=O)[C@H](Cc2c[nH]c4ccccc24)NC(=O)[C@H](CCCCN)NC(=O)[C@H](Cc2c[nH]cn2)NC(=O)[C@H]([C@@H](C)O)NC(=O)[C@H](CCCNC(=N)N)NC(=O)[C@H](CO)NC3=O)NC(=O)[C@H](CCCCN)NC(=O)[C@H](CC(=O)O)NC(=O)[C@H](CC(N)=O)NC(=O)[C@H](CC(=O)O)NC(=O)[C@@H]2CCCN2C1=O` [compound 252] (H-DCLGAMRKCIPDNDKCCRPNLVCSRTHKWCKYWF-NH2; disulfide 2-17, 9-23, 16-30)?
A: IC50 [1, 4]: 230 nM; IC50 ([2]; use-dependent block, hNav1.5): 5000 nM; IC50 ([3]; use-dependent block, hNav1.3): 400 nM

Q: `CC[C@H](C)[C@@H]1NC(=O)[C@@H]2CSSC[C@@H]3NC(=O)[C@H](C(C)C)NC(=O)[C@H](CC(C)C)NC(=O)[C@H](CC(N)=O)NC(=O)[C@@H]4CCCN4C(=O)[C@H](CCCNC(=N)N)NC(=O)[C@H](CSSC[C@H](NC(=O)[C@@H](N)CC(=O)O)C(=O)N[C@@H](CC(C)C)C(=O)NCC(=O)N[C@@H](Cc4ccccc4)C(=O)N[C@@H](CCSC)C(=O)N[C@@H](CCCNC(=N)N)C(=O)N[C@@H](CCCCN)C(=O)N2)NC(=O)[C@H](CSSC[C@@H](C(=O)N[C@@H](CCCCN)C(=O)N[C@@H](Cc2ccc(O)cc2)C(=O)N[C@H](C(=O)N[C@@H](Cc2ccccc2)C(N)=O)C(C)C)NC(=O)[C@H](Cc2c[nH]c4ccccc24)NC(=O)[C@H](C)NC(=O)[C@H](Cc2cnc[nH]2)NC(=O)[C@H]([C@@H](C)O)NC(=O)[C@H](CCCNC(=N)N)NC(=O)[C@H](CO)NC3=O)NC(=O)[C@H](CCCCN)NC(=O)[C@H](CC(=O)O)NC(=O)[C@H](CC(N)=O)NC(=O)[C@H](CC(=O)O)NC(=O)[C@@H]2CCCN2C1=O` [compound 12] (H-DCLGFMRKCIPDNDKCCRPNLVCSRTHAWCKYVF-NH2; disulfide 2-17, 9-23, 16-30) was tested. Which IC50 [1] did it give?
A: 360 nM

Q: And the IC50 ([2]; Table 23, use, […])?
A: 17300 nM

Q: And the IC50 ([3]; Table 23, use, […])?
A: 660 nM

Q: What does the source list for `CC[C@H](C)[C@@H]1NC(=O)[C@@H]2CSSC[C@@H]3NC(=O)[C@H](C(C)C)NC(=O)[C@H](CC(C)C)NC(=O)[C@H](CC(N)=O)NC(=O)[C@@H]4CCCN4C(=O)[C@H](CCCNC(=N)N)NC(=O)[C@H](CSSC[C@H](NC(=O)[C@@H](N)CC(=O)O)C(=O)N[C@@H](CC(C)C)C(=O)NCC(=O)N[C@@H](C)C(=O)N[C@@H](CCSC)C(=O)N[C@@H](CCCNC(=N)N)C(=O)N[C@@H](CCCCN)C(=O)N2)NC(=O)[C@H](CSSC[C@@H](C(=O)N[C@@H](C)C(=O)N[C@@H](Cc2ccc(O)cc2)C(=O)N[C@H](C(=O)N[C@@H](Cc2ccccc2)C(N)=O)C(C)C)NC(=O)[C@H](Cc2c[nH]c4ccccc24)NC(=O)[C@H](CCCCN)NC(=O)[C@H](Cc2c[nH]cn2)NC(=O)[C@H]([C@@H](C)O)NC(=O)[C@H](CCCNC(=N)N)NC(=O)[C@H](CO)NC3=O)NC(=O)[C@H](CCCCN)NC(=O)[C@H](CC(=O)O)NC(=O)[C@H](CC(N)=O)NC(=O)[C@H](CC(=O)O)NC(=O)[C@@H]2CCCN2C1=O` [compound 433] (H-DCLGAMRKCIPDNDKCCRPNLVCSRTHKWCAYVF-NH2; disulfide 2-17, 9-23, 16-30)?
A: IC50 [1, 4]: > 5000 nM; IC50 ([2]; use-dependent block, hNav1.5): > 5000 nM; IC50 ([3]; use-dependent block, hNav1.3): > 5000 nM

Q: With `CC[C@H](C)[C@@H]1NC(=O)[C@@H]2CSSC[C@@H]3NC(=O)[C@H](C(C)C)NC(=O)[C@H](CC(C)C)NC(=O)[C@H](CC(N)=O)NC(=O)[C@@H]4CCCN4C(=O)[C@H](CCCNC(=N)N)NC(=O)[C@H](CSSC[C@H](NC(=O)[C@@H](N)CC(=O)O)C(=O)N[C@@H](CC(C)C)C(=O)NCC(=O)N[C@@H](CC4CCCCC4)C(=O)N[C@@H](Cc4ccccc4)C(=O)N[C@@H](CCCNC(=N)N)C(=O)N[C@@H](CCCCN)C(=O)N2)NC(=O)[C@H](CSSC[C@@H](C(=O)N[C@@H](CCCCN)C(=O)N[C@@H](Cc2ccc(O)cc2)C(=O)N[C@H](C(=O)N[C@@H](Cc2ccccc2)C(N)=O)C(C)C)NC(=O)[C@H](Cc2c[nH]c4ccccc24)NC(=O)[C@H](CCCCN)NC(=O)[C@H](Cc2c[nH]cn2)NC(=O)[C@H]([C@@H](C)O)NC(=O)[C@H](CCCNC(=N)N)NC(=O)[C@H](CO)NC3=O)NC(=O)[C@H](CCCCN)NC(=O)[C@H](CC(=O)O)NC(=O)[C@H](CC(N)=O)NC(=O)[C@H](CC(=O)O)NC(=O)[C@@H]2CCCN2C1=O` [compound 680] (H-DCLG[Cha]FRKCIPDNDKCCRPNLVCSRTHKWCKYVF-NH2; disulfide 2-17, 9-23, 16-30) as the compound, how does the IC50 [1] read?
A: 19 nM

Q: What about the IC50 ([2]; use-dependent protocol, hNav1.5) of the same compound?
A: 3500 nM

Q: What about the IC50 ([3]; use-dependent protocol, hNav1.3) of the same compound?
A: 32 nM

Q: What does the source list for `CC[C@H](C)[C@@H]1NC(=O)[C@@H]2CSSC[C@@H]3NC(=O)[C@H](C(C)C)NC(=O)[C@H](CC(C)C)NC(=O)[C@H](CC(N)=O)NC(=O)[C@@H]4CCCN4C(=O)[C@H](CCCNC(=N)N)NC(=O)[C@H](CSSC[C@H](NC(=O)[C@@H](N)CC(=O)O)C(=O)N[C@@H](CC(C)C)C(=O)NCC(=O)N[C@@H](Cc4ccccc4)C(=O)N[C@@H](CCSC)C(=O)N[C@@H](CCCNC(=N)N)C(=O)N[C@@H](CCCCN)C(=O)N2)NC(=O)[C@H](CSSC[C@@H](C(=O)N[C@@H](CCCCN)C(=O)N[C@@H](Cc2ccc(O)cc2)C(=O)N[C@H](C(=O)N[C@H](C(N)=O)c2ccccc2)C(C)C)NC(=O)[C@H](Cc2c[nH]c4ccccc24)NC(=O)[C@H](CCCCN)NC(=O)[C@H](Cc2c[nH]cn2)NC(=O)[C@H]([C@@H](C)O)NC(=O)[C@H](CCCNC(=N)N)NC(=O)[C@H](CO)NC3=O)NC(=O)[C@H](CCCCN)NC(=O)[C@H](CC(=O)O)NC(=O)[C@H](CC(N)=O)NC(=O)[C@H](CC(=O)O)NC(=O)[C@@H]2CCCN2C1=O` [compound 406] (H-DCLGFMRKCIPDNDKCCRPNLVCSRTHKWCKYV[Phg]-NH2; disulfide 2-17, 9-23, 16-30)?
A: IC50 ([1]; IonWorks Quattro, use-dependent, […], read-out: IWQ Use Nav1.7): 40 nM; IC50 ([2]; use-dependent, […]): 5950 nM; IC50 ([3]; use-dependent, […]): 20 nM
